The values below come from ChEMBL document CHEMBL1153501, “3,4-Disubstituted benzofuran P1' MMP-13 inhibitors: optimization of selectivity and reduction of protein binding” (Bioorg Med Chem Lett, 2009).

The term IC50 denotes the concentration that gives 50% inhibition. The low end stands for greater potency in that assay, the high end for weaker potency in that assay. As usually defined, the inhibition is the change of the read-out against control, counted positive when it falls.

Data set [1] in a line: Selectivity ratio of IC50 for MMP2 to IC50 for MMP13.
Data set [2] deals with 72 kDa type IV collagenase (Homo sapiens, UniProt P08253). In words: Inhibition of MMP2.
72 kDa type IV collagenase, sequence (P08253 whole entry): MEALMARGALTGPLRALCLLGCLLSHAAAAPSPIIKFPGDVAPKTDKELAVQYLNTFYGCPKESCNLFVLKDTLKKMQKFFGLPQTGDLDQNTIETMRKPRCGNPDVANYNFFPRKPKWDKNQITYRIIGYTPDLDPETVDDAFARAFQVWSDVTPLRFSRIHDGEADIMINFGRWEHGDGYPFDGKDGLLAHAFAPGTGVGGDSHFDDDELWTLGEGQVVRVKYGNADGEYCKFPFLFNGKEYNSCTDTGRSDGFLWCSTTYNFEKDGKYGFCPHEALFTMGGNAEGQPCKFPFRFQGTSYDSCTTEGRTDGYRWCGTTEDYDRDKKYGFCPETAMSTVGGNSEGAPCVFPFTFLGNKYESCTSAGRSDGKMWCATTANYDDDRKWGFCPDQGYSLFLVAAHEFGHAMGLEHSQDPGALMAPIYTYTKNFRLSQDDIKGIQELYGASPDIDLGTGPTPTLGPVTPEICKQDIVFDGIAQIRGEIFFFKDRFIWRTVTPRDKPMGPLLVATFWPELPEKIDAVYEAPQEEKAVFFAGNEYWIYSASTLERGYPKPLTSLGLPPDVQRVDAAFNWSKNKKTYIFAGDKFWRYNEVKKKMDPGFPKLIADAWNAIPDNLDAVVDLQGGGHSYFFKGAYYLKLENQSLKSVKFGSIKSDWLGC
Another data set addresses Collagenase 3 (Homo sapiens, UniProt P45452). In words: Inhibition of MMP13.
The target of data set [3] is Matrix metalloproteinase-9 (Homo sapiens, UniProt P14780). In words: Inhibition of MMP9.
Matrix metalloproteinase-9, sequence (P14780 whole entry): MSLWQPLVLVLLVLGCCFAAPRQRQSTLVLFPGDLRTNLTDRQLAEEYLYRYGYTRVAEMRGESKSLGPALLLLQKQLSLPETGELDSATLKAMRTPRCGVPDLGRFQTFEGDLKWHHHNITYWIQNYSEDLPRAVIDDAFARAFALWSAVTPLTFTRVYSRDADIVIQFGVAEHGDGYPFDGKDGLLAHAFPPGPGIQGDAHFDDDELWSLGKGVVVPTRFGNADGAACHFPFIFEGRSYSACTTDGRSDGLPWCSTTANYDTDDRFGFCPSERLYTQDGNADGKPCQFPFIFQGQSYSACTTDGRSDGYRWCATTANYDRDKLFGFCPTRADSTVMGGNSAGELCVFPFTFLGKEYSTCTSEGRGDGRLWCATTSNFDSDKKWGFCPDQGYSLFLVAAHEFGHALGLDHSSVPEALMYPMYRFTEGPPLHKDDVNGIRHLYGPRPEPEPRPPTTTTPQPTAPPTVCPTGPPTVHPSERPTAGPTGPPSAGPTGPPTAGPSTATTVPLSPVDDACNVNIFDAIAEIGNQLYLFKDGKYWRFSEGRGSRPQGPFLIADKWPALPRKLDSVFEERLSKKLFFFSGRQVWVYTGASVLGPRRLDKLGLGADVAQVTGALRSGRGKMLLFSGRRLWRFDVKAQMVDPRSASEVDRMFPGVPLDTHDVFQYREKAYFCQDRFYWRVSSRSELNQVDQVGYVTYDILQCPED
Data set [4] concerns the target Matrix metalloproteinase-14 (Homo sapiens, UniProt P50281). In words: Inhibition of MMP14.
In data set [5] the target is Collagenase 3 (Bos taurus) (UniProt O77656). In words: Inhibition of IL1-stimulated MMP13-mediated bovine articular cartilage collagen degradation assessed as hydroxyproline content at 0.01 uM after 17 days.
The target in data set [6] is T1, A disintegrin and metalloproteinase with thrombospondin motifs 4 (Homo sapiens, UniProt O75173).
T1 sequence (O75173 whole entry): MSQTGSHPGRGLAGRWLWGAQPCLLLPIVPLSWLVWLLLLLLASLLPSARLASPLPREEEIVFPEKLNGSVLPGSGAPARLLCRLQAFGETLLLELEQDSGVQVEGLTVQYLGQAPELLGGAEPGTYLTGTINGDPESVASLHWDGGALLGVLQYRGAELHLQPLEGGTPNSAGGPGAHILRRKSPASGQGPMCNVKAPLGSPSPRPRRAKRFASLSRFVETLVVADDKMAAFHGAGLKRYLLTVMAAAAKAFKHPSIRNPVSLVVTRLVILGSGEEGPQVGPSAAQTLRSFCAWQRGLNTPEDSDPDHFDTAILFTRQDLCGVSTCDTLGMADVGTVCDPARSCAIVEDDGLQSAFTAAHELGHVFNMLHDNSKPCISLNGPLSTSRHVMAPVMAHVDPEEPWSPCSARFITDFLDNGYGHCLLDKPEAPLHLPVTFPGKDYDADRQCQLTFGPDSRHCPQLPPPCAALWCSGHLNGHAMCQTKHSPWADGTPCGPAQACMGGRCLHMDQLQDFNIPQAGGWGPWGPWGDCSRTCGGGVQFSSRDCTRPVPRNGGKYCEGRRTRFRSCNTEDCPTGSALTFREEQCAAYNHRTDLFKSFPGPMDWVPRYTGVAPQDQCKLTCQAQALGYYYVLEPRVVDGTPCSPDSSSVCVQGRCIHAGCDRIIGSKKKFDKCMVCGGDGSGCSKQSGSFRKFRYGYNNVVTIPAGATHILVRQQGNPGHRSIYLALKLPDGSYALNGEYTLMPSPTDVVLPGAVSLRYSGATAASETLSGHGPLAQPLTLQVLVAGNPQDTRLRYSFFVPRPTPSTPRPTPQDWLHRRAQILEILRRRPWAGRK
In words: Inhibition of aggrecanase-1.

For data set [7], the target named is Collagenase 3 (Bos taurus) (UniProt O77656). In words: Inhibition of IL1-stimulated MMP13-mediated bovine articular cartilage collagen degradation assessed as hydroxyproline content at 1 uM after 17 days.
Data set [8] shares this target. In words: Inhibition of IL1-stimulated MMP13-mediated bovine articular cartilage collagen degradation assessed as hydroxyproline content at 0.1 uM after 17 days.
For another data set, the target named is Interstitial collagenase (Homo sapiens, UniProt P03956). In words: Inhibition of MMP1.
Interstitial collagenase, sequence (P03956 whole entry, looked up): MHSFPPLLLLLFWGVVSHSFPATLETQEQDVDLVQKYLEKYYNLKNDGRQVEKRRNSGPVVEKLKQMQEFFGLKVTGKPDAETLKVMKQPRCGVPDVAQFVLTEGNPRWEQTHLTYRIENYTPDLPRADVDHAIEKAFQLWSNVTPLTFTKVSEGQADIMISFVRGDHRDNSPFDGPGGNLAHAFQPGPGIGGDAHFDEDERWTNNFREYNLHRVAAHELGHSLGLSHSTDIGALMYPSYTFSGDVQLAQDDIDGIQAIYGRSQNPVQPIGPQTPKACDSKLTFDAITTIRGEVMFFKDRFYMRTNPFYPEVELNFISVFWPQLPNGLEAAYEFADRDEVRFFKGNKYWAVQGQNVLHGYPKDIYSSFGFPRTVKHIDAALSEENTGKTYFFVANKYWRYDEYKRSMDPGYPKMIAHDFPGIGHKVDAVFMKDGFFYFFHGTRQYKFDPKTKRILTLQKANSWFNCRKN
A further data set concerns the target albumin (Oryctolagus cuniculus, UniProt P49065). In words: Protein binding in rabbit serum albumin by equilibrium dialysis assay. In kind it is ADME. Conditions: read-out: PB. Background: Equilibrium dialysis compares concentrations on both sides of a semipermeable membrane.

A value given as a limit tells only on which side of the number the result lay.

albumin, sequence (P49065 whole entry): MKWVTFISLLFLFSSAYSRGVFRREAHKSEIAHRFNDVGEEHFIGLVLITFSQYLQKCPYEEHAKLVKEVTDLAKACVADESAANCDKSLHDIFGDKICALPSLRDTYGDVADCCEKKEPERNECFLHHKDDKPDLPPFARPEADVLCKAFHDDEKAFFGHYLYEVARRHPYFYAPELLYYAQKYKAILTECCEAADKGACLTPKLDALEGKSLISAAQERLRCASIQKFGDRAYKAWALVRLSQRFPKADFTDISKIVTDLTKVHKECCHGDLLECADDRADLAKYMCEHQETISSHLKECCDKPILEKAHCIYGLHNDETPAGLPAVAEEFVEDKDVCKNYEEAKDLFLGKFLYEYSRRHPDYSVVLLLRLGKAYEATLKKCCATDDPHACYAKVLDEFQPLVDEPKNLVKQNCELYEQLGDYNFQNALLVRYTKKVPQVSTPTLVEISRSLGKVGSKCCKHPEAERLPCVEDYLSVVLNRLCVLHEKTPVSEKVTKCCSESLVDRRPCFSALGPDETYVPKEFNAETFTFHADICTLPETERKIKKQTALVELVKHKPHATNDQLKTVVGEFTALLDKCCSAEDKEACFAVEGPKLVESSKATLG

On to `COC(=O)C(C)(C)Oc1cccc2oc(C(=O)Nc3ccc(-c4ccc(S(=O)(=O)N[C@H](C(=O)O)C(C)C)cc4)cc3)c(C)c12`, for which the Ratio IC50 in data set [1] turned out to be 248.
Same read-out and setting: next, `CCc1cccc2oc(C(=O)Nc3ccc(-c4ccc(S(=O)(=O)N[C@H](C(=O)O)C(C)C)cc4)cc3)c(C)c12`: 613; `Cc1c(C(=O)Nc2ccc(-c3ccc(S(=O)(=O)N[C@H](C(=O)O)C(C)C)cc3)cc2)oc2cccc(Oc3ccccc3)c12`: 263; `CC(=O)Nc1cccc2oc(C(=O)Nc3ccc(-c4ccc(S(=O)(=O)N[C@H](C(=O)O)C(C)C)cc4)cc3)c(C)c12`: 152.
Same read-out and setting: next, `Cc1c(C(=O)Nc2ccc(-c3ccc(S(=O)(=O)N[C@H](C(=O)O)C(C)C)cc3)cc2)oc2cccc(N3CCOCC3)c12`: 51.
Turning to `Cc1c(C(=O)Nc2ccc(-c3ccc(S(=O)(=O)N[C@H](C(=O)O)C(C)C)cc3)cc2)oc2cccc(O)c12`, in data set [1], the Ratio IC50 was 63.
As for `C#Cc1cccc2oc(C(=O)Nc3ccc(-c4ccc(S(=O)(=O)N[C@H](C(=O)O)C(C)C)cc4)cc3)c(C)c12`, the Ratio IC50 in data set [1] came out at 98.
Still for that read-out and setting: next, `COc1cccc2oc(C(=O)Nc3ccc(-c4ccc(S(=O)(=O)N[C@H](C(=O)O)C(C)C)cc4)cc3)c(C)c12`: 110.
Consider `Cc1cccc2oc(C(=O)Nc3ccc(-c4ccc(S(=O)(=O)N[C@H](C(=O)O)C(C)C)cc4)cc3)c(C)c12`, for which the Ratio IC50 in data set [1] is 287.
Still for that read-out and setting: the same measure for `Cc1c(C(=O)Nc2ccc(-c3ccc(S(=O)(=O)N[C@H](C(=O)O)C(C)C)cc3)cc2)oc2cccc(CCCO)c12`: 621; for `Cc1c(C(=O)Nc2ccc(-c3ccc(S(=O)(=O)N[C@H](C(=O)O)C(C)C)cc3)cc2)oc2cccc(N)c12`: 75.
As to `CCOc1cccc2oc(C(=O)Nc3ccc(-c4ccc(S(=O)(=O)N[C@H](C(=O)O)C(C)C)cc4)cc3)c(C)c12`, the Ratio IC50 in data set [1] came to 485.
Same read-out and setting: the same measure for `COCCCc1cccc2oc(C(=O)Nc3ccc(-c4ccc(S(=O)(=O)N[C@H](C(=O)O)C(C)C)cc4)cc3)c(C)c12`: 364.
Regarding `Cc1c(C(=O)Nc2ccc(-c3ccc(S(=O)(=O)N[C@H](C(=O)O)C(C)C)cc3)nc2)oc2cccc(NS(C)(=O)=O)c12`, in data set [1], the Ratio IC50 came to 188. Moreover, the concentration for half-maximal inhibition (IC50) in data set [2] was found to be 7.5 µM; against Collagenase 3 it was 0.04 µM.
For the compound `Cc1c(C(=O)Nc2ccc(-c3ccc(S(=O)(=O)N[C@H](C(=O)O)C(C)C)cc3)cc2)oc2cccc(N(C)C)c12`, the Ratio IC50 in data set [1] was found to be 786.
Same read-out and setting: the same measure for `Cc1c(C(=O)Nc2ccc(-c3ccc(S(=O)(=O)N[C@H](C(=O)O)C(C)C)cc3)cc2)oc2cccc(-c3ccccc3)c12`: 243.
Same read-out and setting: the same measure for `Cc1c(C(=O)Nc2ccc(-c3ccc(S(=O)(=O)N[C@H](C(=O)O)C(C)C)cc3)cc2)oc2cccc(-c3ccoc3)c12`: 322.
For the compound `Cc1c(C(=O)Nc2ccc(-c3ccc(S(=O)(=O)N[C@H](C(=O)O)C(C)C)cc3)cc2)oc2cccc(NS(C)(=O)=O)c12`, the IC50 is > 10 µM in [3]; 11.2 µM in [4]; 2.15 µM in data set [2]; 2.2 µM in data set [6]; 0.013 µM against Collagenase 3; 12 µM against Interstitial collagenase. In addition, the Ratio IC50 in data set [1] turned out to be 165. The results for the inhibition in [5], in [7] and in [8] were 51%, 96% and 69%, respectively.
Take `CNc1cccc2oc(C(=O)Nc3ccc(-c4ccc(S(=O)(=O)N[C@H](C(=O)O)C(C)C)cc4)cc3)c(C)c12`: in [1], the Ratio IC50 is 108.
As to `Cc1c(C(=O)Nc2ccc(-c3ccc(S(=O)(=O)N[C@H](C(=O)O)C(C)C)cc3)cc2)oc2cccc(C#N)c12`, in data set [3], the half-inhibitory concentration (IC50) was > 10 µM. Further, the Ratio IC50 in [1] amounted to 157. Also, the inhibition came to 23% in [5], 100% in [7] and 87% in data set [8].
In the case of `CC#Cc1cccc2oc(C(=O)Nc3ccc(-c4ccc(S(=O)(=O)N[C@H](C(=O)O)C(C)C)cc4)cc3)c(C)c12`, the Ratio IC50 in data set [1] is 1580.
With `COc1c(Br)ccc2oc(C(=O)Nc3ccc(-c4ccc(S(=O)(=O)N[C@H](C(=O)O)C(C)C)cc4)cc3)c(C)c12`, in data set [1], the Ratio IC50 amounted to 739. For the same compound, the fraction unbound at albumin is < 0.01.
